Experimental data published in US6900026B2, “Methods for identifying compounds as antioxidants” (priority 1996, dated 2005).

How the values were obtained:
[1] = system: control animals (+/+, +/−); experiment: Pathology of liver, brain and heart in treated control animals (+/+, +/−); assay type: in vivo, mouse; settings: control animals (+/+, +/−) treated with MnTBAP
Experimental: (§1) In most experiments, MnTBAP was prepared for injection by dissolving in 0.1 M NaOH, diluted with sterile water to a dosage level of 5 mg MnTBAP/kg, and administered by daily intra-peritoneal (IP) injections of between 10 and 45 μl, 2 hours post weighing, from 3 days of age. In addition to homozygous mutant animals, both heterozygotes and wild-type animals were injected to serve as controls. Wild-type or heterozygous Sod2CJE pups were sacrificed at the same age as Sod2CJE(−/−) pups to serve as controls.
For pathology, the brains were removed from the sacrificed animals and fixed in 10% buffered formalin for up to 7 days. They were then processed, embedded, and sectioned. In some cases representative sections were made every 20 sections or so at 7 microns thickness throughout the brain and stained with hematoxylin and eosin for examination by light microscopy. In other cases, the entire brain was sectioned at 8 microns throughout. […]
Assessment of the effect of MnTBAP treatment on liver morphology was carried out by blind assessment of wild-type and heterozygous animals chronically treated with compound for 3 weeks. […] Each section was evaluated for the quantity and size of lipid droplets by arbitrarily scoring with a numerical value (Table 2). […]

[2] = system: succinate dehydrogenase (SDH, Complex II); experiment: Histochemical staining of succinate dehydrogenase (SDH, Complex II) in tissue of treated MnSOD-deficient homozygotes; assay type: in vivo, mouse
Excerpt: Fat accumulates in the liver, where it can be detected by Oil Red O staining. […] By contrast, in Euk-8 treated animals both the lipid accumulation in the liver and SDH inhibition are rescued.

cells = settings: in vitro; cited from earlier work
Sod2CJE(−/−) animals [3] = experiment: Behavioral analysis and neuropathology of treated Sod2CJE(−/−) animals; assay type: in vivo; settings: for neurological and behavioral phenotype: treated Sod2CJE(−/−) mice
Experimental: Treated Sod2CJE(−/−) animals were observed daily from 10 days through to greater than five weeks for behavioral abnormalities compared to litter mate controls. Daily video recordings of up to 10 minutes were made to longitudinally track the development of behavioral changes. A total of 187 video recordings were made of 63 animals from 10 to 23 days of age.
For pathology, the brains were removed from the sacrificed animals and fixed in 10% buffered formalin for up to 7 days. They were then processed, embedded, and sectioned. In some cases representative sections were made every 20 sections or so at 7 microns thickness throughout the brain and stained with hematoxylin and eosin for examination by light microscopy. In other cases, the entire brain was sectioned at 8 microns throughout. Fifteen Sod2CJE(−/−) brains between 11 and 23 days of age were examined by hematoxylin and eosin staining and light microscopy in coronal, sagittal, or horizontal orientations with 17 controls in a blinded study (4 heterozygotes and 6 wild-types treated; and 2 heterozygotes and 5 wild-types untreated).
During the course of an experiment, each mouse is evaluated daily for weight, lethargy, lack of appetite, its vital signs and for any indication of neurological disorders (observed for circling behavior, dystonia, trembling or the like. Video records can be made for later evaluation, for example for side-by-side comparisons or for observing changes over time. Cardiac histopathology and central nervous system tissue analysis are carried out after death of the animal or after sacrifice of the animal.

[4] = Transmission of orally administered compound to the milk of nursing mothers; assay type: in vivo, mouse
Excerpt: The skilled artisan understands how to test a particular compound for its toxicity in a particular mammal, for its ability to cross the blood-brain barrier and for its ability to enter the bloodstream and/or the cerebrospinal fluid. Preferred compounds are those which readily enter circulation and the central nervous system so that maximum amelioration of any disorder or disease resulting from oxidative damage, especially from superoxide radical.

[5] = in vitro; cited from earlier work
Sod2CJE(−/−) animals [6] = experiment: Cardiac measurements and histology in treated Sod2CJE(−/−) animals; assay type: in vivo, mouse; settings: 20-21 days of age
Experimental: Cardiac dimensions were measured at 21 days of age for wild-type and heterozygous animals. These were compared with homozygous mutant animals treated with MnTBAP as described [Li et al. (1995) supra].

Sod2CJE(−/−) animals [7] = experiment: Lipid in liver by Oil red-O staining, treated Sod2CJE(−/−) animals; assay type: in vivo, mouse; set-up: key to Lipid Mode (score): 0=no observable lipid in sections; 1=mild diffuse speckled distribution of lipid; 2=more intense speckled pattern; 3=coalescence of small lipid droplets into large intercellular droplets; 4=massive intercellular lipid droplet accumulation; settings: for Lipid % Control / Lipid Mean (score) / Lipid Mode (score): MnTBAP treated Sod2CJE(−/−); for Lipid % Control: control = untreated (−/−) 6-10 days; for Lipid Mean (score) / Lipid Mode (score): score 0-4; for accumulation of lipid in the liver: treated MnSOD-deficient homozygotes, qualitative
Excerpt: (see also Table 2). […] The level of lipid in liver sections was scored as follows: 0=no observable lipid in sections, 1=mild diffuse speckled distribution of lipid, 2=more intense speckled pattern, 3=coalescence of small lipid droplets into large intercellular droplets, and 4=massive intercellular lipid droplet accumulation. Wild-type or heterozygotes treated with MnTBAP for 3 weeks had no observable difference in the morphology of the liver compared to untreated controls (+/+or +/−). The livers of 25 MnTBAP treated Sod2CJE(−/−) animals were examined at 12, 14 and 17 days of age (Table 2) and compared with treated wild type animals.
Assessment of the effect of MnTBAP treatment on liver morphology was carried out by blind assessment of wild-type and heterozygous animals chronically treated with compound for 3 weeks. Hematoxylin and Eosin stained sections from 27 treated homozygous normal (+/+) and heterozygous (+/−) animals were compared with 2 untreated control animals. To evaluate lipid in the liver of treated homozygous mutant MnSOD(−/−) animals, 8 u frozen sections were prepared and stained with Oil red O [Li et al. (1995) supra]. Each section was evaluated for the quantity and size of lipid droplets by arbitrarily scoring with a numerical value (Table 2). The ratings of multiple animals were then averaged.

Sod2CJE(−/−) mice = experiment: Survival (lifespan) of Sod2CJE(−/−) mice given daily intraperitoneal test compound; assay type: in vivo, mouse; settings: for mean life-span: Sod2CJE(−/−) pups, Euk-8 daily 30 mg/kg, MnTBAP-treated pups
Experimental: Mice lacking functional MnSOD have been described by Li et al. (1995) Nature Genetics 11:376-381, incorporated herein by reference. The genotypes of one-day-old pups are determined by genetic analysis of tissue surgically excised from the toe or tail tip (2-3 mm). In these mice the third exon of the Sod2 gene has been deleted, thus, destroying the ability to synthesize an active mitochondrial MnSOD.
Litters were grouped into two sizes: large, >6 pups/litter of mutant, heterozygous and normal pups; and small, ≦6 Sod2CJE(−/−) pups/litter, in which the wild type and heterozygous pups were removed at three days of age to ensure that the homozygous mutant pups had unrestricted access to food and nurturing.
as §1
Mouse pups are injected intraperitoneally with test compounds with a 50 microliter Hamilton syringe and a 31 G needle. The maximum volume administered to pups younger than 6 days of age is 20 μl. Injections are given daily, at the same time per day ±2 hours.
The MnTBAP stock solution is diluted down to the administered dose, which is dependent on body weight. For MnTBAP, the dosage is 5 mg/kg per day. Pups are weighed daily to allow calculation of the appropriate dosage.
Survival analysis was carried out by examining the animals daily to determine mortality, and entering the results into a life-table in the program Statistica (Statsoft, Tulsa, Okla.). Comparison between groups was carried out using the Kaplan and Meier survival function, non-parametric t-tests, and the Gehans Wilcoxon statistic from within the program to compare groups.
In general, experiments are carried out with Sod2CJE(−/−) mice, starting at 3 days of age, and the mice are weighed and divided into test and control groups. Test mice receive the compound for which evaluation as an antioxidant is desired at a dosage which is below the level of toxicity. Unless otherwise indicated, the test compound is administered in a pharmaceutically acceptable carrier by the intraperitoneal route. Unless otherwise determined to be advantageous, the test compound is administered at the same time each day (±2 hours).

[8] = mice, after the barrier is established at about 7-12 days of age; cited from earlier work
[9] = SOD2−/− mice treated with free radical scavenging compounds (Table 4)
[10] = Sod2CJE(−/−), Large litter size (>6 pups), with MnTBAP, N=16
[11] = Sod2CJE(−/−), Small litter size (≦6 pups), with MnTBAP, N=15
[12] = Sod2CJE(−/−), all litter sizes, with MnTBAP 5 mg/kg daily IP, N=31, days of age

What does the source list for `O=C(O)c1ccc(-c2c3nc(c(-c4ccc(C(=O)O)cc4)c4ccc([nH]4)c(-c4ccc(C(=O)O)cc4)c4nc(c(-c5ccc(C(=O)O)cc5)c5ccc2[nH]5)C=C4)C=C3)cc1.[Mn]` [MnTBAP, Manganese 5,10,15,20-tetrakis(4-benzoic acid) porphyrin]?
toxicity (pathological changes in liver or brain) [1]: not toxic; tissue SDH inhibition [2]: still inhibited; permeability to cells (cells): permeable to cells; neurological and behavioral phenotype (Sod2CJE(−/−) animals [3]): progressive motor impairment; transmission to the milk of nursing mothers [4]: insufficient transmission; superoxide-degrading activity relative to Sod1/Sod2 when compared by weight [5]: about 10%; effect on cardiac defect (dilated cardiomyopathy) (Sod2CJE(−/−) animals [6]): prevented the cardiac defect; proportion of treated Sod2CJE(−/−) animals with liver lipid levels comparable to untreated Sod2CJE(−/−) animals of 6-10 days (Sod2CJE(−/−) animals [7]; 25 treated animals examined at 12, 14 and 17 days of age (2/25)): 8%; Lipid % Control (Sod2CJE(−/−) animals [7]; 12 days old, n=9): 23%; Lipid Mean (score) (Sod2CJE(−/−) animals [7]; 12 days old, n=9): 0.9; Lipid Mode (score) (Sod2CJE(−/−) animals [7]; 12 days old, n=9): 0; Lipid % Control (Sod2CJE(−/−) animals [7]; 14 days old, n=8): 23%; Lipid Mean (score) (Sod2CJE(−/−) animals [7]; 14 days old, n=8): 0.9; Lipid Mode (score) (Sod2CJE(−/−) animals [7]; 14 days old, n=8): 0.5; Lipid % Control (Sod2CJE(−/−) animals [7]; 17 days old, n=8): 40%; Lipid Mean (score) (Sod2CJE(−/−) animals [7]; 17 days old, n=8): 1.6; Lipid Mode (score) (Sod2CJE(−/−) animals [7]; 17 days old, n=8): 2; accumulation of lipid in the liver (Sod2CJE(−/−) animals [7]): reduced; mean age of survival (Sod2CJE(−/−) mice; MnSOD(−/−) mice, 5 mg/kg daily intraperitoneal, all litters, n=31, ±SD): 16.4 ± 5.8 days; proportion of mice that lived to greater than or equal to 20 days of age (Sod2CJE(−/−) mice; MnSOD(−/−) mice, 5 mg/kg daily intraperitoneal, n=31): 70%; Mean Lifespan (Sod2CJE(−/−) mice; [9]): 14 days; mean life-span (Sod2CJE(−/−) mice): 16 days; Mean Lifespan (Sod2CJE(−/−) mice; [10]): 16.1; Median (lifespan) (Sod2CJE(−/−) mice; [10]): 21; Mean Lifespan (Sod2CJE(−/−) mice; [11]): 16.6; Median (lifespan) (Sod2CJE(−/−) mice; [11]): 19; Mean Lifespan (Sod2CJE(−/−) mice; [12]): 16.4; Median (lifespan) (Sod2CJE(−/−) mice; [12]): 20; mean age of survival (Sod2CJE(−/−) mice; litters of more than six pups (unrestricted), ±SD): 16.1 ± 6.6 days; mean survival (Sod2CJE(−/−) mice; litters with six or less pups (restricted), ±SD): 11.4 ± 4.8 days; crossing of the blood-brain barrier [8]: does not cross the blood-brain barrier

For `[Cl-].[Mn+3].[O-]c1ccccc1C=NCCN=Cc1ccccc1[O-]` [Euk-8], which “tissue SDH inhibition” value [2] is on record?
Its value is “rescued”.

And the “crossing of the blood brain barrier” value (Sod2CJE(−/−) animals [3]; concluded from beneficial effects on neuronal function in Sod2CJE(−/−) mouse)?
Its value is “crosses the blood brain barrier”.

What about the “neurological and behavioral phenotype” value (Sod2CJE(−/−) animals [3]) of the same molecule?
Its value is “rescue of the neurological and behavioral phenotype”.

And the spongiform encephalopathy (Sod2CJE(−/−) animals [3]; treated Sod2CJE(−/−) mouse, at 17 days)?
The spongiform encephalopathy was “absent”.

What about the “accumulation of lipid in the liver” value (Sod2CJE(−/−) animals [7]) of the same molecule?
Its value is “rescued”.

And the “Mean Lifespan” value (Sod2CJE(−/−) mice; [9])?
The value was 22 days.

And the mean life-span (Sod2CJE(−/−) mice)?
Its mean life-span is 22 days.
